Test results reported in patent US12077503B2, “Substituted cyclic amides and their use as herbicides” (FMC CORPORATION, priority 2015, dated 2024).

Legend:
Format in all cases: in vivo
[1] = tested on: Kochia (Kochia scoparia); assay: Test A preemergence
In short: (§1)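 Preemergence soil spray on seeded pots or post-emergence spray on 1–2 leaf plants, in loam–sand blend. Greenhouse ~10 d. Visual rating 0–100 against untreated plants.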

[2] = tested on: barnyardgrass (Echinochloa crus-galli); assay: Test A preemergence
In short: as §1

[3] = tested on: giant foxtail (Setaria faberii); assay: Test A preemergence
In short: as §1

[4] = tested on: pigweed (Amaranthus retroflexus); assay: Test A preemergence
[5] = tested on: ragweed (common ragweed, Ambrosia elatior); assay: Test A preemergence
In short: as §1

[6] = tested on: ryegrass, Italian (Italian ryegrass, Lolium multiflorum); assay: Test A preemergence
In short: as §1

[7] = tested on: Galium (catchweed bedstraw, Galium aparine); assay: Test A postemergence
In short: as §1

[8] = tested on: Kochia (Kochia scoparia); assay: Test A postemergence
In short: as §1

[9] = tested on: barnyardgrass (Echinochloa crus-galli); assay: Test A postemergence
In short: as §1

[10] = tested on: blackgrass (Alopecurus myosuroides); assay: Test A postemergence
In short: as §1

[11] = tested on: corn (Zea mays); assay: Test A postemergence
In short: as §1

[12] = tested on: giant foxtail (Setaria faberii); assay: Test A postemergence
In short: as §1

[13] = tested on: pigweed (Amaranthus retroflexus); assay: Test A postemergence
In short: as §1

[14] = tested on: ragweed (common ragweed, Ambrosia elatior); assay: Test A postemergence
In short: as §1

[15] = tested on: ryegrass, Italian (Italian ryegrass, Lolium multiflorum); assay: Test A postemergence
In short: as §1

[16] = tested on: wheat (Triticum aestivum); assay: Test A postemergence
In short: as §1

[17] = tested on: barnyardgrass (Echinochloa crus-galli); assay: Test B flooded paddy test; conditions: Flood, 250 g ai/ha, 0 to 100 scale where 0 is no effect and 100 is complete control
In short: (§2)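 Rating scale 0–100 (visual, vs untreated controls) after a 13–15 d greenhouse period; application to the flood layer, 3 cm above soil and maintained; plants at 2-leaf stage when treated.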

[18] = tested on: ducksalad (Heteranthera limosa); assay: Test B flooded paddy test; conditions: Flood, 250 g ai/ha, 0 to 100 scale where 0 is no effect and 100 is complete control
In short: as §2

[19] = tested on: rice (Oryra sativa); assay: Test B flooded paddy test; conditions: Flood, 250 g ai/ha, 0 to 100 scale where 0 is no effect and 100 is complete control
In short: as §2

[20] = tested on: sedge, umbrella (small-flower umbrella sedge, Cyperus difformis); assay: Test B flooded paddy test; conditions: Flood, 250 g ai/ha, 0 to 100 scale where 0 is no effect and 100 is complete control
In short: as §2

[21] = 125 g ai/ha, preemergence, 0 to 100 scale (0 no effect, 100 complete control)
[22] = Preemergence, 500 g ai/ha, 0 is no effect, 100 is complete control
[23] = 125 g ai/ha, postemergence, visual injury rating on 0 to 100 scale (0 no effect, 100 complete control), approx. 10 d
[24] = 500 g ai/ha, postemergence, 0 to 100 scale, 0 no effect, 100 complete control
[25] = Postemergence, 125 g ai/ha, visual injury, 0 to 100 scale (0 no effect, 100 complete control), approx. 10 d

For CN1CC(c2cccc(OC(F)(F)C(F)F)c2)C(C(=O)Nc2cccc(F)c2F)C1=O (stereo not shown) [Compound 392], the “Plant response rating, Kochia” value [1, 21] was 50, the “Kochia plant response rating (0 to 100 scale)” value [1, 22] was 70 and the “Plant response rating, Barnyardgrass” value [2, 21] was 90. For the same compound, the “Barnyardgrass plant response rating (0 to 100 scale)” value [2, 22] was 90, the “Plant response rating, Foxtail, Giant” value [3, 21] was 90 and the “Foxtail, Giant plant response rating (0 to 100 scale)” value [3, 22] was 90. The “Plant response rating, Pigweed” value [4, 21] was 70, the “Pigweed plant response rating (0 to 100 scale)” value [4, 22] was 80 and the “Plant response rating, Ragweed” value [5, 21] was 70. For the same compound, the “Ragweed plant response rating (0 to 100 scale)” value [5, 22] was 60, the “Plant response rating, Ryegrass, Italian” value [6, 21] was 40 and the “Ryegrass, Italian plant response rating (0 to 100 scale)” value [6, 22] was 80. For the same compound, the “Galium plant response rating” value [7, 23] was 70, the “Plant response rating, Galium” value [7, 24] was 70 and the “Kochia plant response rating” value [8, 23] was 50. For the same compound, the “Plant response rating, Kochia” value [8, 24] was 70, the “Plant response rating, Barnyardgrass” value [9, 24] was 90 and the “Plant response rating, Barnyardgrass” value [9, 25] was 80. The “Plant response rating, Blackgrass” value [10, 24] was 70, the “Plant response rating, Blackgrass” value [10, 25] was 70 and the “Corn plant response rating” value [11, 23] was 70. For the same compound, the “Plant response rating, Corn” value [11, 24] was 80, the “Foxtail, Giant plant response rating” value [12, 23] was 90 and the “Plant response rating, Foxtail, Giant” value [12, 24] was 90. The “Pigweed plant response rating” value [13, 23] was 60, the “Plant response rating, Pigweed” value [13, 24] was 70 and the “Ragweed plant response rating” value [14, 23] was 50. For the same compound, the “Plant response rating, Ragweed” value [14, 24] was 20, the “Ryegrass, Italian plant response rating” value [15, 23] was 50 and the “Plant response rating, Ryegrass, Italian” value [15, 24] was 80. The “Wheat plant response rating” value [16, 23] was 20, the “Plant response rating, Wheat” value [16, 24] was 70 and the “Plant response rating, Barnyardgrass” value ([17]; 13 to 15 d) was 60. The “Plant response rating, Ducksalad” value ([18]; 13 to 15 d) was 90, the “Plant response rating, Rice” value ([19]; 13 to 15 d) was 20 and the “Plant response rating, Sedge, Umbrella” value ([20]; 13 to 15 d) was 0.
Compound CN1C[C@H](c2cc(C(F)F)cs2)[C@@H](C(=O)Nc2cccc(F)n2)C1=O [Compound 1090] has a pest or weed control at 31 g/ha ([1]; Bassia scoparia, pre-emergence, 240 h, 31 g ai/ha, Preemergence, 0 to 100 scale where 0 is no effect and 100 is complete control, read-out: Kochia plant response rating) of 20%, a pest or weed control at 125 g/ha ([1]; Bassia scoparia, pre-emergence, 240 h, 125 g ai/ha, preemergence, 0 to 100 scale where 0 is no effect and 100 is complete control, approx. 10 d, read-out: Kochia plant response rating) of 30% and a pest or weed control at 31 g/ha ([2]; Echinochloa crus-galli, pre-emergence, 240 h, 31 g ai/ha, Preemergence, 0 to 100 scale where 0 is no effect and 100 is complete control, read-out: Barnyardgrass plant response rating) of 10%. For the same compound, the pest or weed control at 125 g/ha ([2]; Echinochloa crus-galli, pre-emergence, 240 h, 125 g ai/ha, preemergence, 0 to 100 scale where 0 is no effect and 100 is complete control, approx. 10 d, read-out: Barnyardgrass plant response rating) was 90%, the pest or weed control at 31 g/ha ([3]; Setaria faberi, pre-emergence, 240 h, 31 g ai/ha, Preemergence, 0 to 100 scale where 0 is no effect and 100 is complete control, read-out: Foxtail, Giant plant response rating) was 60% and the pest or weed control at 125 g/ha ([3]; Setaria faberi, pre-emergence, 240 h, 125 g ai/ha, preemergence, 0 to 100 scale where 0 is no effect and 100 is complete control, approx. 10 d, read-out: Foxtail, Giant plant response rating) was 100%. The pest or weed control at 31 g/ha ([4]; Amaranthus retroflexus, pre-emergence, 240 h, 31 g ai/ha, Preemergence, 0 to 100 scale where 0 is no effect and 100 is complete control, read-out: Pigweed plant response rating) was 0%, the pest or weed control at 125 g/ha ([4]; Amaranthus retroflexus, pre-emergence, 240 h, 125 g ai/ha, preemergence, 0 to 100 scale where 0 is no effect and 100 is complete control, approx. 10 d, read-out: Pigweed plant response rating) was 0% and the pest or weed control at 31 g/ha ([5]; Ambrosia artemisiifolia, pre-emergence, 240 h, 31 g ai/ha, Preemergence, 0 to 100 scale where 0 is no effect and 100 is complete control, read-out: Ragweed plant response rating) was 0%. It also gave a pest or weed control at 125 g/ha ([5]; Ambrosia artemisiifolia, pre-emergence, 240 h, 125 g ai/ha, preemergence, 0 to 100 scale where 0 is no effect and 100 is complete control, approx. 10 d, read-out: Ragweed plant response rating) of 0%, a pest or weed control at 31 g/ha ([6]; Lolium multiflorum, pre-emergence, 240 h, 31 g ai/ha, Preemergence, 0 to 100 scale where 0 is no effect and 100 is complete control, read-out: Ryegrass, Italian plant response rating) of 30% and a pest or weed control at 125 g/ha ([6]; Lolium multiflorum, pre-emergence, 240 h, 125 g ai/ha, preemergence, 0 to 100 scale where 0 is no effect and 100 is complete control, approx. 10 d, read-out: Ryegrass, Italian plant response rating) of 0%. For the same compound, the pest or weed control at 125 g/ha ([7]; Galium, post-emergence, 240 h, 125 g ai/ha, postemergence, visual injury on 0 to 100 scale (0 no effect, 100 complete control), approx. 10 d, read-out: Galium plant response rating) was 30%, the pest or weed control at 31 g/ha ([7]; Galium, post-emergence, 240 h, Postemergence, 31 g ai/ha, visual injury after approx. 10 d, 0 to 100 scale, 0 no effect, 100 complete control, read-out: Plant response rating, Galium) was 30% and the pest or weed control at 125 g/ha ([8]; Bassia scoparia, post-emergence, 240 h, 125 g ai/ha, postemergence, visual injury on 0 to 100 scale (0 no effect, 100 complete control), approx. 10 d, read-out: Kochia plant response rating) was 30%. For the same compound, the pest or weed control at 31 g/ha ([8]; Bassia scoparia, post-emergence, 240 h, Postemergence, 31 g ai/ha, visual injury after approx. 10 d, 0 to 100 scale, 0 no effect, 100 complete control, read-out: Plant response rating, Kochia) was 0%, the pest or weed control at 125 g/ha ([10]; Alopecurus myosuroides, post-emergence, 240 h, 125 g ai/ha, postemergence, visual injury on 0 to 100 scale (0 no effect, 100 complete control), approx. 10 d, read-out: Blackgrass plant response rating) was 20% and the pest or weed control at 31 g/ha ([10]; Alopecurus myosuroides, post-emergence, 240 h, Postemergence, 31 g ai/ha, visual injury after approx. 10 d, 0 to 100 scale, 0 no effect, 100 complete control, read-out: Plant response rating, Blackgrass) was 0%. The plant injury at 125 g/ha ([11]; Zea mays, post-emergence, 240 h, 125 g ai/ha, postemergence, visual injury on 0 to 100 scale (0 no effect, 100 complete control), approx. 10 d, read-out: Corn plant response rating) was 20%, the Corn plant response rating (crop injury, 0 = no effect, 100 = complete kill) at 31 g/ha ([11]; Zea mays, post-emergence, 240 h, Postemergence, 31 g ai/ha, visual injury after approx. 10 d, 0 to 100 scale, 0 no effect, 100 complete control) was 0% and the pest or weed control at 125 g/ha ([12]; Setaria faberi, post-emergence, 240 h, 125 g ai/ha, postemergence, visual injury on 0 to 100 scale (0 no effect, 100 complete control), approx. 10 d, read-out: Foxtail, Giant plant response rating) was 80%. For the same compound, the pest or weed control at 31 g/ha ([12]; Setaria faberi, post-emergence, 240 h, Postemergence, 31 g ai/ha, visual injury after approx. 10 d, 0 to 100 scale, 0 no effect, 100 complete control, read-out: Plant response rating, Foxtail, Giant) was 20%, the pest or weed control at 125 g/ha ([13]; Amaranthus retroflexus, post-emergence, 240 h, 125 g ai/ha, postemergence, visual injury on 0 to 100 scale (0 no effect, 100 complete control), approx. 10 d, read-out: Pigweed plant response rating) was 0% and the pest or weed control at 31 g/ha ([13]; Amaranthus retroflexus, post-emergence, 240 h, Postemergence, 31 g ai/ha, visual injury after approx. 10 d, 0 to 100 scale, 0 no effect, 100 complete control, read-out: Plant response rating, Pigweed) was 0%. It also gave a pest or weed control at 125 g/ha ([14]; Ambrosia artemisiifolia, post-emergence, 240 h, 125 g ai/ha, postemergence, visual injury on 0 to 100 scale (0 no effect, 100 complete control), approx. 10 d, read-out: Ragweed plant response rating) of 0%, a pest or weed control at 31 g/ha ([14]; Ambrosia artemisiifolia, post-emergence, 240 h, Postemergence, 31 g ai/ha, visual injury after approx. 10 d, 0 to 100 scale, 0 no effect, 100 complete control, read-out: Plant response rating, Ragweed) of 0% and a pest or weed control at 125 g/ha ([15]; Lolium multiflorum, post-emergence, 240 h, 125 g ai/ha, postemergence, visual injury on 0 to 100 scale (0 no effect, 100 complete control), approx. 10 d, read-out: Ryegrass, Italian plant response rating) of 0%. The pest or weed control at 31 g/ha ([15]; Lolium multiflorum, post-emergence, 240 h, Postemergence, 31 g ai/ha, visual injury after approx. 10 d, 0 to 100 scale, 0 no effect, 100 complete control, read-out: Plant response rating, Ryegrass, Italian) was 0%, the plant injury at 125 g/ha ([16]; Triticum aestivum, post-emergence, 240 h, 125 g ai/ha, postemergence, visual injury on 0 to 100 scale (0 no effect, 100 complete control), approx. 10 d, read-out: Wheat plant response rating) was 20% and the plant injury at 31 g/ha ([16]; Triticum aestivum, post-emergence, 240 h, Postemergence, 31 g ai/ha, visual injury after approx. 10 d, 0 to 100 scale, 0 no effect, 100 complete control, read-out: Plant response rating, Wheat) was 0%. The pest or weed control at 250 g/ha ([17]; Echinochloa crus-galli, read-out: Barnyardgrass plant response rating) was 80%, the pest or weed control at 250 g/ha ([18]; Heteranthera limosa, read-out: Ducksalad plant response rating) was 95% and the pest or weed control at 250 g/ha ([19]; Oryza sativa, read-out: Rice plant response rating) was 0%. For the same compound, the pest or weed control at 250 g/ha ([20]; Cyperus difformis, read-out: Sedge, Umbrella plant response rating) was 0%.
